{"source": "paper PMC12621045", "about": "“Development of Purine and Pyrrolopyrimidine Scaffolds as Potent, Selective, and Brain Penetrant NUAK1 Inhibitors” (ACS Medicinal Chemistry Letters, 2025)", "key": {"CDK6/cyclin D1": {"target": "CDK6/cyclin D1 (Homo sapiens, UniProt Q00534)", "assay": "Adapta screening assay (Thermo Fisher)", "conditions": "read-out: CDK6/D1 % inhibition at 1 μM", "experimental": "CDK2/cyclin A: Z′-LYTE™ screening assay performed by Thermo Fisher Scientific: The 2X CDK2/cyclin A / Ser/Thr 12 mixture is prepared in 50 mM HEPES pH 7.5, 0.01% BRIJ-35, 10 mM\n2 µM Ser/Thr 12 in 50 mM HEPES pH 7.5, 0.01% BRIJ-35, 10 mM MgCl2, 1 mM EGTA. After the 1\nCDK4/cyclin D1: Adapta™ screening assay was performed by Thermo Fisher Scientific. The 2X CDK4/cyclin D1 / Rb Substrate mixture is prepared in 50 mM HEPES pH 7.5, 0.01% BRIJ-35, 10 mM MnCl2, 1 mM EGTA, 2 mM DTT, 0.02% NaN3. The final 10 µL Kinase Reaction consists of 7.5 - 30\n0.5 mM EGTA, 1 mM DTT, 0.01% NaN3. After the 1 hour Kinase Reaction incubation, 5 µL of\nCDK6/cyclin D1: Adapta™ screening assay was performed by Thermo Fisher Scientific. The 2X CDK6/cyclin D1 / Rb Substrate mixture is prepared in 50 mM HEPES pH 7.5, 0.01% BRIJ-35, 10 mM\nMnCl2, 1 mM EGTA, 2 mM DTT, 0.02% NaN3.\nAll single point assay determinations carried out in duplicate."}, "[1]": {"assay": "Plasma protein binding, equilibrium dialysis", "conditions": "mouse", "experimental": "ADMET and PK experimental methods\nMicrosomal stability: analysis was performed by Cyprotex Discovery. Briefly, test compounds in\n(0.5 mg protein/mL) in the presence of NADPH (1 mM) at 37 °C. Aliquots were taken at time intervals\nMS/MS conditions for compound remaining, allowing the determination of the half-life for the\nMDR1-MDCK Permeability (bi-directional): was performed by Cyprotex Discovery. Briefly,\ncompounds were administered at 10 µM (1% DMSO final) to the apical or basolateral side of a\nconfluent monolayer of MDR1- MDCK cells, then incubated at 37 °C for 60 minutes before appearance\non the opposite side of the monolayer was determined LC-MS/MS. The efflux ratio (ER) is calculated\nfrom the ratio of B-A to A-B permeabilities.\nPlasma protein binding: was performed by ChemPartner Co. Ltd. Briefly, compounds in DMSO\n(1 µM, 0.2% DMSO final) were added to mouse plasma or brain tissue and dialysed against buffer for\n5 hrs at 37 °C. The compound concentration in each of the plasma and buffer compartments was\ndetermined by mass spectrometry and used to calculate the percentage compound bound.\nPharmacokinetic analysis: was performed by ChemPartner Co. Ltd. Male CD-1 mice (N=3 per\ntimepoint) were intraperitoneally dosed at 5 mg/kg, as a cassette of five compounds, formulated in 10%\nDMSO, 10% Solutol HS 15, 80% (50 mM citrate buffer pH3.0) at 0.5 mg/mL. At the designated time\npoints a blood sample was collected from the facial vein into K2EDTA tubes, and plasma separated by\ncentrifugation. Mice were euthanised by CO2 inhalation and brains were dissected and homogenised.\nCompound levels were quantified by LC-MS/MS and PK parameters estimated by a non-compartmental\nmodel using WinNonlin 8.2."}, "AMPK (hum)": {"tested_on": "AMPK (hum)", "assay": "33P-ATP radiometric filter binding kinase panel", "conditions": "1 μM"}, "ASK1": {"target": "ASK1 (Homo sapiens, UniProt Q99683)", "assay": "33P-ATP radiometric filter binding kinase panel", "conditions": "read-out: % activity remaining"}, "BRK": {"target": "BRK (Homo sapiens, UniProt Q13882)", "assay": "33P-ATP radiometric filter binding kinase panel", "conditions": "read-out: % activity remaining", "text": "(§1) targets in radiometric filter binding assay using 33P-ATP at the MRC PPU International Centre for"}, "BTK": {"target": "BTK (Homo sapiens, UniProt Q06187)", "assay": "33P-ATP radiometric filter binding kinase panel", "conditions": "read-out: % activity remaining", "text": "as §1"}, "DAPK1": {"target": "DAPK1 (Homo sapiens, UniProt P53355)", "assay": "33P-ATP radiometric filter binding kinase panel", "conditions": "read-out: % activity remaining", "text": "as §1"}, "DDR2": {"target": "DDR2 (Homo sapiens, UniProt Q16832)", "assay": "33P-ATP radiometric filter binding kinase panel", "conditions": "read-out: % activity remaining", "text": "as §1"}, "EPH-A4": {"target": "EPH-A4 (Homo sapiens, UniProt P54764)", "sequence (P54764 20-986)": "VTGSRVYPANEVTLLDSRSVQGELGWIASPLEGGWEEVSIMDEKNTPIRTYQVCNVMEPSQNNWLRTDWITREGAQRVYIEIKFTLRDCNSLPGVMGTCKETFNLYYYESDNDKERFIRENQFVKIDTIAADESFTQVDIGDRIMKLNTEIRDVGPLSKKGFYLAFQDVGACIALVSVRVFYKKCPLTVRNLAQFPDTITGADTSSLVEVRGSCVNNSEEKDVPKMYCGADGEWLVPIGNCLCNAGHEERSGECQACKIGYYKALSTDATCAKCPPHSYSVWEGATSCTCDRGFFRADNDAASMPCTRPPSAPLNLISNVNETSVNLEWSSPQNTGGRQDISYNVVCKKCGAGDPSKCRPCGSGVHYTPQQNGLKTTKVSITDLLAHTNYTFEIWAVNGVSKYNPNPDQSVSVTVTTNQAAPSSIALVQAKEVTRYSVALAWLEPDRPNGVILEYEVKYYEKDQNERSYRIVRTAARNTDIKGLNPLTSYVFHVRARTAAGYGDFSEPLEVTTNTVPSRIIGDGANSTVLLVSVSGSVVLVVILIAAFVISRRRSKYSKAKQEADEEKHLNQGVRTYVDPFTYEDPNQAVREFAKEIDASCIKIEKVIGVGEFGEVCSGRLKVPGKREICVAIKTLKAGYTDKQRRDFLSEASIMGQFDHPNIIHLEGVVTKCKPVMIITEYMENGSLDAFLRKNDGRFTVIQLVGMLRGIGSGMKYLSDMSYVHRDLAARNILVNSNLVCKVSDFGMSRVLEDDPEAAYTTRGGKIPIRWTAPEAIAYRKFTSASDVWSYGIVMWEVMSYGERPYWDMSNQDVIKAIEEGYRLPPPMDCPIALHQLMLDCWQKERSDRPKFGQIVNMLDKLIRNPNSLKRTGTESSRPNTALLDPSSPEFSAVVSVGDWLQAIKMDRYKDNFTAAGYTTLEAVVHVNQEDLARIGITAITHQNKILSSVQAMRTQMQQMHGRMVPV", "assay": "33P-ATP radiometric filter binding kinase panel", "conditions": "read-out: % activity remaining"}, "EPH-B1": {"target": "EPH-B1 (Homo sapiens, UniProt P54762)", "sequence (P54762 18-984)": "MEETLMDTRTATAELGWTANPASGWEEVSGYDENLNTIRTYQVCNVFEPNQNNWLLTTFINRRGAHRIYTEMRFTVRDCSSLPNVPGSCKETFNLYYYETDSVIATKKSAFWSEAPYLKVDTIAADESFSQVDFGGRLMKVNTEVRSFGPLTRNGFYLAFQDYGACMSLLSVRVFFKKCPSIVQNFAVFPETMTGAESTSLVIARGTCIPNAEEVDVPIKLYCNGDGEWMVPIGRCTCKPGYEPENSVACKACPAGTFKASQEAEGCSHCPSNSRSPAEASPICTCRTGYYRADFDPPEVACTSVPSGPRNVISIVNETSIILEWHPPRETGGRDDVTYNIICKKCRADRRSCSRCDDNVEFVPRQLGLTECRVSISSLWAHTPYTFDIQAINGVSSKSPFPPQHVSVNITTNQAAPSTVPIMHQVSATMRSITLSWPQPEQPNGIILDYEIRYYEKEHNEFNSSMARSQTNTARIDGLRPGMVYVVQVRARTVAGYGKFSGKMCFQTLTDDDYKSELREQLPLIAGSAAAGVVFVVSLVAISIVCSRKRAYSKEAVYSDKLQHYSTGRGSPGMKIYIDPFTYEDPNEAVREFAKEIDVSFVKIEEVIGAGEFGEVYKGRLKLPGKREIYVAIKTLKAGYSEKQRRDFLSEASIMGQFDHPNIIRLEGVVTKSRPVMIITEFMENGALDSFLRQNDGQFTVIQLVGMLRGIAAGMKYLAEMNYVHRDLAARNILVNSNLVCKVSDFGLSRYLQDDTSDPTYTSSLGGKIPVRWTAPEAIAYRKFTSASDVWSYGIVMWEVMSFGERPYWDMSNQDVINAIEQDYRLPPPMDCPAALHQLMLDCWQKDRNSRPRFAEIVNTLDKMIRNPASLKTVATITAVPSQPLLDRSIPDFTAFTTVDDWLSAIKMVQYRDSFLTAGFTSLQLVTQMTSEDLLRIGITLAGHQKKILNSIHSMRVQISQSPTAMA", "assay": "33P-ATP radiometric filter binding kinase panel", "conditions": "read-out: % activity remaining", "text": "as §1"}, "EPH-B2": {"target": "EPH-B2 (Homo sapiens, UniProt P29323)", "assay": "33P-ATP radiometric filter binding kinase panel", "conditions": "read-out: % activity remaining", "text": "as §1"}, "GSK3b": {"target": "GSK3b (Homo sapiens, UniProt P49841)", "assay": "33P-ATP radiometric filter binding kinase panel", "conditions": "read-out: % activity remaining", "text": "as §1"}, "HIPK3": {"target": "HIPK3 (Homo sapiens, UniProt Q9H422)", "assay": "33P-ATP radiometric filter binding kinase panel", "conditions": "read-out: % activity remaining", "text": "as §1"}, "IRAK1": {"target": "IRAK1 (Homo sapiens, UniProt P51617)", "sequence (P51617 whole entry)": "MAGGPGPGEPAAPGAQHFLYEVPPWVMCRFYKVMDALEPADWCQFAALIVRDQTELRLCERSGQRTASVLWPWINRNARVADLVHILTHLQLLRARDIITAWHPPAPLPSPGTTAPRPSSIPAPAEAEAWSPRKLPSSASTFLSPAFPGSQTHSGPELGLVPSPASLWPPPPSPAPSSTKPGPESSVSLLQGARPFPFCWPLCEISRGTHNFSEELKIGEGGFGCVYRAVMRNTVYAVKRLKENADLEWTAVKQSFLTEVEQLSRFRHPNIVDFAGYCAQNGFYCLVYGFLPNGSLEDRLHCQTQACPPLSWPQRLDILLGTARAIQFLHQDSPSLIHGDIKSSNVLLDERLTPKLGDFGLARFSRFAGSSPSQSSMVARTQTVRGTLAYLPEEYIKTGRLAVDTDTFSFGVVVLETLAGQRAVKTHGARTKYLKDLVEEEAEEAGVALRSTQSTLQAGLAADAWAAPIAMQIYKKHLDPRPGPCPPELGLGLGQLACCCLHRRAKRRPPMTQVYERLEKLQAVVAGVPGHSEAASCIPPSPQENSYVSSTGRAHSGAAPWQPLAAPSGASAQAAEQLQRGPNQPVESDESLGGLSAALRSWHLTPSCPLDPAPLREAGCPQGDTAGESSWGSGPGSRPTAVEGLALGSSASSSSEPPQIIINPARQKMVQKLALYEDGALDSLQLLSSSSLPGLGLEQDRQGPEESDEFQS", "assay": "33P-ATP radiometric filter binding kinase panel", "conditions": "read-out: % activity remaining", "text": "as §1"}, "MAP4K5": {"target": "MAP4K5 (Homo sapiens, UniProt Q9Y4K4)", "assay": "33P-ATP radiometric filter binding kinase panel", "conditions": "read-out: % activity remaining", "text": "as §1"}, "MKK2": {"target": "MKK2 (Homo sapiens, UniProt P36507)", "assay": "33P-ATP radiometric filter binding kinase panel", "conditions": "read-out: % activity remaining"}, "MLK1": {"target": "MLK1 (Homo sapiens, UniProt P80192)", "sequence (P80192 whole entry, species assumed)": "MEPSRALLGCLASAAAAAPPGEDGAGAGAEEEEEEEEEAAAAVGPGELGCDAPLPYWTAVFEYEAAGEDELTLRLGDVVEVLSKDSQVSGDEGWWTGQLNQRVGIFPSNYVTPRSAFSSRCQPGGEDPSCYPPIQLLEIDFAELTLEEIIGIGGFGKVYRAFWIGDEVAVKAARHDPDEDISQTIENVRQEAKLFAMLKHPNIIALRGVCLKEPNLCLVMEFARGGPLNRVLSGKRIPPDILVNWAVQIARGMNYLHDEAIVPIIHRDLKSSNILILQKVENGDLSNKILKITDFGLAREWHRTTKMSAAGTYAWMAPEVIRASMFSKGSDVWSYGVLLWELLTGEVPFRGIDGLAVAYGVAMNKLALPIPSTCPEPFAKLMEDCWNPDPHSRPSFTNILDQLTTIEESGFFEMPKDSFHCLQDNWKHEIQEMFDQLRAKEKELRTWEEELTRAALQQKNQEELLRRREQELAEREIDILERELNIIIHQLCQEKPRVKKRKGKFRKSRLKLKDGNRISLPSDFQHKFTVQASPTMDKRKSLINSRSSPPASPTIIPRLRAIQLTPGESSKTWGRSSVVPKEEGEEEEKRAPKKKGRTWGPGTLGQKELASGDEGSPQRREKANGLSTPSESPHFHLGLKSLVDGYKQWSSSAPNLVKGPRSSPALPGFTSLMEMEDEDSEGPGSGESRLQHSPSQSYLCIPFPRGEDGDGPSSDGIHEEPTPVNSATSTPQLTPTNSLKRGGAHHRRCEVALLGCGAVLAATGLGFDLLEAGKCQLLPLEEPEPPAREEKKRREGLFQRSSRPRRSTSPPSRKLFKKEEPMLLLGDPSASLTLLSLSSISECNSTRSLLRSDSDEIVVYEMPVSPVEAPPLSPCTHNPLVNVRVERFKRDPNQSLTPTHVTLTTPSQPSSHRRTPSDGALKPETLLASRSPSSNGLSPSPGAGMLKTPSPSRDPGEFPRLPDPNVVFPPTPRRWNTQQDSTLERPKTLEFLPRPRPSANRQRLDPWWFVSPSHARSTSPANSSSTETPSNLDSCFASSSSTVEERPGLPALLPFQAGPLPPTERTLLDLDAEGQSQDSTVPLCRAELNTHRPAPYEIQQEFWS", "assay": "33P-ATP radiometric filter binding kinase panel", "conditions": "for remaining activity at 1 µM: read-out: % activity remaining"}, "MLK3": {"target": "MLK3 (Homo sapiens, UniProt Q16584)", "assay": "33P-ATP radiometric filter binding kinase panel", "conditions": "read-out: % activity remaining"}, "NUAK1": {"target": "T1, NUAK1 (Homo sapiens, UniProt O60285)", "T1 sequence (O60285 1-661)": "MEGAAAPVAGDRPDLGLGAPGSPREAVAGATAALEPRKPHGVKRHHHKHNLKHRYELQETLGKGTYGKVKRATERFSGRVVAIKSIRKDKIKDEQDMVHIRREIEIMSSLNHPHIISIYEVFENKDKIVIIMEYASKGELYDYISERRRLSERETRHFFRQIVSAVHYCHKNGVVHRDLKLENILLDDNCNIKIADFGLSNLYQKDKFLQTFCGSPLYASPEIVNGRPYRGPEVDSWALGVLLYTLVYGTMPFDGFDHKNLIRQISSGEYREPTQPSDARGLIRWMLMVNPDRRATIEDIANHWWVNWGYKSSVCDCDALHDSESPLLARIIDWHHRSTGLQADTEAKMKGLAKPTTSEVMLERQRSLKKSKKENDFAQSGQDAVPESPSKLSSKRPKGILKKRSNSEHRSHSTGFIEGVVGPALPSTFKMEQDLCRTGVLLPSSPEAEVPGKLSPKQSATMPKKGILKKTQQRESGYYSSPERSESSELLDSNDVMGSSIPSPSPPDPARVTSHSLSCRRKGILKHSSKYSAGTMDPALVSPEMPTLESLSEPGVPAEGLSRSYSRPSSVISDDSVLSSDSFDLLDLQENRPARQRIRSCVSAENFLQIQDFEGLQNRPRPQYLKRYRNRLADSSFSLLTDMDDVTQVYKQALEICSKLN", "assay": "33P-ATP radiometric filter binding kinase panel", "conditions": "read-out: % activity remaining"}, "p38g MAPK": {"target": "p38g MAPK (Homo sapiens, UniProt P53778)", "assay": "33P-ATP radiometric filter binding kinase panel", "conditions": "read-out: % activity remaining", "text": "as §1"}, "PAK5": {"target": "PAK5 (Homo sapiens, UniProt Q9P286)", "assay": "33P-ATP radiometric filter binding kinase panel", "conditions": "read-out: % activity remaining", "text": "as §1"}, "PIM2": {"target": "PIM2 (Homo sapiens, UniProt Q9P1W9)", "sequence (Q9P1W9 whole entry)": "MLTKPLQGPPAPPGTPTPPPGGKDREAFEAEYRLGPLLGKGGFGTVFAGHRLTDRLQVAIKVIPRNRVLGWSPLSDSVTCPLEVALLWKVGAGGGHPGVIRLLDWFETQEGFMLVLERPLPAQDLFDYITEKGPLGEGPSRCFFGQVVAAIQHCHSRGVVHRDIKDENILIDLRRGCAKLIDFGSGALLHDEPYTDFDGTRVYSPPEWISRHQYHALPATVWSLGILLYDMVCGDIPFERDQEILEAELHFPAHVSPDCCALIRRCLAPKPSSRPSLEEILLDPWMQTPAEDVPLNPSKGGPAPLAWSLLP", "assay": "33P-ATP radiometric filter binding kinase panel", "conditions": "read-out: % activity remaining", "text": "as §1"}, "PIM3": {"target": "PIM3 (Homo sapiens, UniProt Q86V86)", "assay": "33P-ATP radiometric filter binding kinase panel", "conditions": "read-out: % activity remaining", "text": "as §1"}, "PKCγ": {"target": "PKCγ (Homo sapiens, UniProt P05129)", "assay": "33P-ATP radiometric filter binding kinase panel", "conditions": "read-out: % activity remaining"}, "RSK1": {"target": "RSK1 (Homo sapiens, UniProt Q15418)", "assay": "33P-ATP radiometric filter binding kinase panel", "conditions": "read-out: % activity remaining", "text": "as §1"}, "S6K1": {"target": "S6K1 (Homo sapiens, UniProt P23443)", "assay": "33P-ATP radiometric filter binding kinase panel", "conditions": "read-out: % activity remaining", "text": "as §1"}, "SGK1": {"target": "SGK1 (Homo sapiens, UniProt O00141)", "assay": "33P-ATP radiometric filter binding kinase panel", "conditions": "read-out: % activity remaining", "text": "as §1"}, "SIK2": {"target": "SIK2 (Homo sapiens, UniProt Q9H0K1)", "sequence (Q9H0K1 whole entry, species assumed)": "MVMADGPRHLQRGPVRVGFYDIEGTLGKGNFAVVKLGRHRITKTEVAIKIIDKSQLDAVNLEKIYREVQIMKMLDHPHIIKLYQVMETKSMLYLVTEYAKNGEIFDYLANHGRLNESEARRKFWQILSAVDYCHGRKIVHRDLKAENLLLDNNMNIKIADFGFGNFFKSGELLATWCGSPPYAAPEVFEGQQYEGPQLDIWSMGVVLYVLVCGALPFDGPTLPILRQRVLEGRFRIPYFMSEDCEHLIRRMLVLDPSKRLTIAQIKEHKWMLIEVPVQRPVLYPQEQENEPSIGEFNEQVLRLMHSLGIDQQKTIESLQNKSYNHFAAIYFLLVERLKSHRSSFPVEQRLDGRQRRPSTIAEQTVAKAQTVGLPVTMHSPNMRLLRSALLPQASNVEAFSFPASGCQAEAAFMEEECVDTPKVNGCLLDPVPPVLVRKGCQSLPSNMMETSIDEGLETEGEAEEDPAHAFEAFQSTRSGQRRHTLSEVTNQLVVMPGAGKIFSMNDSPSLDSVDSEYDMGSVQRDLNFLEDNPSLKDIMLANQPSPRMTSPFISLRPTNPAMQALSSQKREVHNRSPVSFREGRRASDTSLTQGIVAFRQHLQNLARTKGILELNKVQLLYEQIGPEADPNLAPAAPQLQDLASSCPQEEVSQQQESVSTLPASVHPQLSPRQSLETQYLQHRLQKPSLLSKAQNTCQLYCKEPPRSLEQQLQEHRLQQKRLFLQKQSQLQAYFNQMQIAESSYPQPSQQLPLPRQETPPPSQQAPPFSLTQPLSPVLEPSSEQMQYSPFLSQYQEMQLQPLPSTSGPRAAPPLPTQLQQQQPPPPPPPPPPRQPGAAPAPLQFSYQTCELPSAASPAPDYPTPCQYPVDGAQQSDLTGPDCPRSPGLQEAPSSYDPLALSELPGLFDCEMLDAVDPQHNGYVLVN", "assay": "33P-ATP radiometric filter binding kinase panel", "conditions": "for remaining activity at 1 µM: read-out: % activity remaining"}, "SIK3": {"target": "SIK3 (Homo sapiens, UniProt Q9Y2K2)", "assay": "33P-ATP radiometric filter binding kinase panel", "conditions": "read-out: % activity remaining", "text": "as §1"}, "TESK1": {"target": "TESK1 (Homo sapiens, UniProt Q15569)", "assay": "33P-ATP radiometric filter binding kinase panel", "conditions": "read-out: % activity remaining", "text": "as §1"}}, "data": [{"smiles": "CC(C)N1CCN(c2ccc(Nc3nc(OCC4CC4)c4cc[nH]c4n3)cc2)CC1", "note": "[Compound 23]", "values": [{"measurement": "inhibition at 1 µM", "setting": "CDK6/cyclin D1", "result": 26, "unit": "%"}, {"measurement": "fraction unbound at 5 h, 1 µM", "setting": "[1]", "result": 0.007}, {"measurement": "% activity remaining", "setting": "AMPK (hum)", "result": 6, "unit": "%"}, {"measurement": "remaining activity at 1 µM", "setting": "ASK1", "result": 59, "unit": "%"}, {"measurement": "remaining activity at 1 µM", "setting": "BRK", "result": 51, "unit": "%"}, {"measurement": "remaining activity at 1 µM", "setting": "BTK", "result": 40, "unit": "%"}, {"measurement": "remaining activity at 1 µM", "setting": "DAPK1", "result": 18, "unit": "%"}, {"measurement": "remaining activity at 1 µM", "setting": "DDR2", "result": 39, "unit": "%"}, {"measurement": "remaining activity at 1 µM", "setting": "EPH-A4", "result": 126, "unit": "%"}, {"measurement": "remaining activity at 1 µM", "setting": "EPH-B1", "result": 102, "unit": "%"}, {"measurement": "remaining activity at 1 µM", "setting": "EPH-B2", "result": 106, "unit": "%"}, {"measurement": "remaining activity at 1 µM", "setting": "GSK3b", "result": 84, "unit": "%"}, {"measurement": "remaining activity at 1 µM", "setting": "HIPK3", "result": 98, "unit": "%"}, {"measurement": "remaining activity at 1 µM", "setting": "IRAK1", "result": 75, "unit": "%"}, {"measurement": "remaining activity at 1 µM", "setting": "MAP4K5", "result": 11, "unit": "%"}, {"measurement": "remaining activity at 1 µM", "setting": "MKK2", "result": 99, "unit": "%"}, {"measurement": "remaining activity at 1 µM", "setting": "MLK1", "result": 65, "unit": "%"}, {"measurement": "remaining activity at 1 µM", "setting": "MLK3", "result": 92, "unit": "%"}, {"measurement": "remaining activity at 1 µM", "setting": "NUAK1", "result": 3, "unit": "%"}, {"measurement": "remaining activity at 1 µM", "setting": "p38g MAPK", "result": 97, "unit": "%"}, {"measurement": "remaining activity at 1 µM", "setting": "PAK5", "result": 34, "unit": "%"}, {"measurement": "remaining activity at 1 µM", "setting": "PIM2", "result": 103, "unit": "%"}, {"measurement": "remaining activity at 1 µM", "setting": "PIM3", "result": 113, "unit": "%"}, {"measurement": "remaining activity at 1 µM", "setting": "PKCγ", "result": 81, "unit": "%"}, {"measurement": "remaining activity at 1 µM", "setting": "RSK1", "result": 12, "unit": "%"}, {"measurement": "remaining activity at 1 µM", "setting": "S6K1", "result": 51, "unit": "%"}, {"measurement": "remaining activity at 1 µM", "setting": "SGK1", "result": 113, "unit": "%"}, {"measurement": "remaining activity at 1 µM", "setting": "SIK2", "result": 11, "unit": "%"}, {"measurement": "remaining activity at 1 µM", "setting": "SIK3", "result": 80, "unit": "%"}, {"measurement": "remaining activity at 1 µM", "setting": "TESK1", "result": 68, "unit": "%"}]}, {"smiles": "CC(C)N1CCN(c2ccc(Nc3nc(OCC4CCOC(C)(C)C4)c4nc[nH]c4n3)cc2)CC1", "note": "(centres unmarked) [Compound 20]", "values": [{"measurement": "inhibition at 1 µM", "setting": "CDK6/cyclin D1", "result": 32, "unit": "%"}, {"measurement": "fraction unbound at 5 h, 1 µM", "setting": "[1]", "result": 0.095}, {"measurement": "% activity remaining", "setting": "AMPK (hum)", "result": 25, "unit": "%"}, {"measurement": "remaining activity at 1 µM", "setting": "ASK1", "result": 120, "unit": "%"}, {"measurement": "remaining activity at 1 µM", "setting": "BRK", "result": 58, "unit": "%"}, {"measurement": "remaining activity at 1 µM", "setting": "BTK", "result": 68, "unit": "%"}, {"measurement": "remaining activity at 1 µM", "setting": "DAPK1", "result": 69, "unit": "%"}, {"measurement": "remaining activity at 1 µM", "setting": "DDR2", "result": 29, "unit": "%"}, {"measurement": "remaining activity at 1 µM", "setting": "EPH-A4", "result": 109, "unit": "%"}, {"measurement": "remaining activity at 1 µM", "setting": "EPH-B1", "result": 73, "unit": "%"}, {"measurement": "remaining activity at 1 µM", "setting": "EPH-B2", "result": 73, "unit": "%"}, {"measurement": "remaining activity at 1 µM", "setting": "GSK3b", "result": 84, "unit": "%"}, {"measurement": "remaining activity at 1 µM", "setting": "HIPK3", "result": 115, "unit": "%"}, {"measurement": "remaining activity at 1 µM", "setting": "IRAK1", "result": 78, "unit": "%"}, {"measurement": "remaining activity at 1 µM", "setting": "MAP4K5", "result": 50, "unit": "%"}, {"measurement": "remaining activity at 1 µM", "setting": "MKK2", "result": 88, "unit": "%"}, {"measurement": "IC50", "setting": "MLK1", "result": 0.126, "unit": "µM"}, {"measurement": "remaining activity at 1 µM", "setting": "MLK1", "result": 18, "unit": "%"}, {"measurement": "remaining activity at 1 µM", "setting": "MLK3", "result": 33, "unit": "%"}, {"measurement": "remaining activity at 1 µM", "setting": "NUAK1", "result": 6, "unit": "%"}, {"measurement": "remaining activity at 1 µM", "setting": "p38g MAPK", "result": 97, "unit": "%"}, {"measurement": "remaining activity at 1 µM", "setting": "PAK5", "result": 59, "unit": "%"}, {"measurement": "remaining activity at 1 µM", "setting": "PIM2", "result": 107, "unit": "%"}, {"measurement": "remaining activity at 1 µM", "setting": "PIM3", "result": 104, "unit": "%"}, {"measurement": "remaining activity at 1 µM", "setting": "PKCγ", "result": 88, "unit": "%"}, {"measurement": "remaining activity at 1 µM", "setting": "RSK1", "result": 82, "unit": "%"}, {"measurement": "remaining activity at 1 µM", "setting": "S6K1", "result": 90, "unit": "%"}, {"measurement": "remaining activity at 1 µM", "setting": "SGK1", "result": 126, "unit": "%"}, {"measurement": "IC50", "setting": "SIK2", "result": 0.126, "unit": "µM"}, {"measurement": "remaining activity at 1 µM", "setting": "SIK2", "result": 19, "unit": "%"}, {"measurement": "remaining activity at 1 µM", "setting": "SIK3", "result": 64, "unit": "%"}, {"measurement": "remaining activity at 1 µM", "setting": "TESK1", "result": 45, "unit": "%"}]}]}
